These results are taken from article PMC12731536, “Sc(III) Complexes of Pyclen Derivative Ligands as Probes for Hypoxia: Synthesis, Chemical Characterization, ^44Sc‐Radiolabeling, and Preclinical Assessment” (Chemistry (Weinheim an Der Bergstrasse, Germany), 2025).

A short description of data set [1]: Stability constants of Sc(III) complexes, out‐of‐cell (batch) samples, 45Sc NMR. It counts as physicochemical. Particulars: I = 1.00 M NaCl; for pSc: pSc = ‐log[Sc(III)]free, cSc(III) = 1x10^−8 M, clig = 1x10^−7 M; for log K ScL: stability constant of the Sc(III) complex, T = 25 °C. The protocol: The stability constant of the complex of PC2AM^nBu ligand formed with Sc(III) ion was studied using “out‐of‐cell” (batch) samples using ^45Sc NMR spectroscopy in strongly acidic media. Typical ^45Sc NMR spectra are shown in Figure 5 along with the corresponding ^1H NMR spectra of the aromatic region of the ligand.
Using the ^45Sc NMR signal intensities of free Sc^3+ measured in the equilibrated samples, the stability constant, K ScL, was calculated by fitting the areas with the PSEQUAD program ^[ [47] ^] (Figure 6). The best fitting was observed by considering the simplest model including only [Sc(PC2AM^nBu)]^+ species; that is, the formation of protonated [Sc(HPC2AM^nBu)]^2+ cannot be confirmed.
The stability constant of the [Sc(PCTA)] complex was determined in a similar way (Figure S13). The results were summarized in Table 2, including the data of [Sc(DO3AM‐NI)], determined in our previous study.^[ [33] ^]
Among the complexes shown in Table 2, the [Sc(DO3AM‐NI)] complex has the highest stability, but its stability constant is lower than the corresponding values of [Sc(DOTA)]^− (log K ScL = 30.79) and [Sc(DTPA)]^2− (log K ScL = 27.43). ^[ [49] ^] As evidenced for DO3AM‐mono(amide) the replacement of acetate side chains with amide groups results in a decrease in stability constant (and conditional stability); therefore, we can see an order of magnitude difference between the stabilities of [Sc(PCTA)] and [Sc(PC2AM^nBu)]^+. Although these K ScL constants and pSc values are somewhat lower than those of the complexes formed with traditional DOTA and DTPA ligands, these chelators remain remarkably good Sc(III)‐binding chelators. […] Therefore, following the proposal of M. Meyer and colleagues,^[ [48] ^] […] For the AL/M values, 1 corresponds to 90%, 2 corresponds to 99%, 3 corresponds to 99.9% etc. for complex formation. […] The AL/M data of the [Sc(PC2AM^nBu)]^+ complex only exceeds that of the [Sc(DO3AM‐NI)] complex in the pH < 3.0 range, which can be advantageous for labeling at low pH. Furthermore, based on the data in Table 2, it can be concluded that for these systems there is no discrepancy between the trends observed in the pSc and AL/M values.
The stability constant of [Sc(PC2AM^nBu)]^+ and [Sc(PCTA)] complexes was studied using “out‐of‐cell” (batch) samples using ^45Sc and ^1H NMR spectroscopy. The NMR spectra were obtained using a Bruker Avance II DRX spectrometer (9.4 T), equipped with Bruker Variable Temperature Unit, Bruker Cooling Unit, and a 5 mm BB inverse z gradient probe. For the investigation of [Sc(PC2AMnBu)]⁺, twelve samples (cSc(III) = 3.00 mM, cligand = 3.06 mM, in the pH range of –log[H^+] = 0.1–1.3; I = 1.0 M NaCl/HCl) were prepared in NMR tubes and kept at 25 °C for one week to reach equilibrium. During this period, ^1H and ^45Sc NMR measurements were performed daily to monitor changes in signal intensities. No significant changes were detected after one week, even in the most acidic sample. The intensities of the free Sc(III) signals were normalized using a standard 50 mM ScCl3 solution containing 1 M HCl (20% D2O). For the determination of the stability of the [Sc(PCTA)] complex, eleven “batch” samples (cSc(III) = 4.00 mM, cligand = 4.08 mM), in the pH range of –log[H^+] = 0.1–1.25, were prepared. The evaluation of the measured data was performed using the PSEQUAD program.^[ [47] ^] Samples were prepared in H2O, with 10% D2O added for deuterium lock. The actual resonance frequencies for ^1H, ^13C, ^19F, and ^45Sc are indicated in the text and figure captions. The chemical shifts of ^1H and ^13C were calibrated using an external TMS standard, while ^19F was referenced to CCl3F. The ^45Sc NMR shift was calibrated to 0 ppm using a 5 mM solution of ScCl3 in 0.1 M HCl.

A short description of data set [2]: Acid‐assisted dissociation (decomplexation) of Sc(III) complexes, UV spectroscopy. The class given is physicochemical. An excerpt: The inertness of metal complexes is a basic requirement in all relevant modalities of medical imaging. Complexes of macrocyclic ligands are often more inert compared to open‐chain analogs. In order to assess the behavior of our complexes, the decomplexation of [Sc(PC2AM^nBu)]^+ and [Sc(PCTA)] was studied in a strongly acidic medium (cH + = 1.6 ‐ 2.6 M HClO4) by using UV spectroscopy. […] The primary Abs. versus time curves have been fitted by monoexponential function returning kobs (s^−1) values (Figures S22 and S23).
The plots of the rate constants as a function of acid concentration yielded linear relationships for both complexes (k obs = k 0 + k 1[H^+]). The slopes of these lines correspond to the rate coefficients characteristic for acid‐assisted dissociation (k 1), whereas the intercepts characterize the acid‐independent part, often referred to as a rate of spontaneous dissociation. […] The rate coefficients obtained during the fitting are summarized in Table 3, along with the half‐lives calculated from the rate coefficients by using 1 M acid concentration (t ½ = ln 2 / k obs).
Kinetic studies of the dissociation of the [Sc(PC2AMnBu)]^+ and [Sc(PCTA)] complexes were carried out by examining the dependence of the dissociation rates on acid concentration. Spectrophotometric measurements were conducted on a JASCO V‐760 spectrophotometer at λ = 280 nm. The concentration of the complex in the sample was 0.30 mM, and HClO4 was applied in concentrations ranging from 1.6 to 2.6 M. The evaluation of the measured data was performed with Scientist software ^[ [62] ^] to determine the k 0 (spontaneous) and k 1 (acid‐assisted) reaction rates.

The mark [3] stands for this setting: dissociation of the Sc(III) complex, 1.6‐2.6 M HClO4, 25 °C, I = 2.6 M.

SMILES strings stand for the structures.

With `O=C(O)CN1CCN(CC(=O)O)Cc2cccc(n2)CN(CC(=O)O)CC1` [PCTA, reference compound], the “AL/M (relative affinity)” value in data set [1] ([Sc(III)]total = 10 nM, [L]tot = 100 nM, pH = 7.4) came out at 7.14. This compound also displayed a pSc in data set [1] (pH = 7.4) of 21.28. Further, in data set [1], the “log K ScL” value was 22.41(9). Further, in data set [2] (setting [3]), the “k 0 (spontaneous dissociation)” value is given as “(4.21 ± 0.81) x 10^−6 s^−1” and the “k 1 (acid‐assisted dissociation)” value was “(2.11 ± 0.38) x 10^−6 M^−1s^−1”.
As for `CCCCNC(=O)CN1CCN(CC(=O)[O-])Cc2cccc(n2)CN(CC(=O)[O-])CC1.[Sc+3]` [[Sc(PC2AM^nBu)]^+], the pSc in data set [1] (pH = 7.4) is 19.32. Besides, the “log K ScL” value in data set [1] is 19.53(4). In data set [2] (calculated from rate coefficients at 1 M acid concentration, 25 °C), the “t 1/2 of dissociation (1 M H^+)” value was 22 days.
